Test results published in ChEMBL document CHEMBL1201862, “PubChem BioAssay data set” (2004).
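Step 1: Grow cells in 96-well plates. Step 2: Expose to compound for 48 hours at 5 concentrations. Step 3: Interpolate endpoints linearly; if unreached, use highest concentration. GI50: concentration for 50% inhibition of growth.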 Activity calls are given as the source filed them. Rule as the data show it: active = GI50 up to about 1.1 µM and inactive = higher.

Key:
Assay in all cases: NCI tumour cell line growth inhibition, 48 h
[1] = system: 786-0
[2] = system: A549
[3] = system: CAKI-1
[4] = system: CCRF-CEM
[5] = system: EKVX
[6] = system: HCC 2998
[7] = system: IGROV-1
[8] = system: LOX IMVI
[9] = system: MCF7
[10] = system: MDA-MB-231
[11] = system: MDA-N
[12] = system: MOLT-4
[13] = system: NCI-H460
[14] = system: NCI/ADR-RES
[15] = system: SK-MEL-28
[16] = system: SK-MEL-5
[17] = system: SN12C
[18] = system: SNB-19
[19] = system: UACC-62
[20] = system: UO-31

Row | SMILES | GI50 [1] | GI50 [2] | GI50 [3] | GI50 [4] | GI50 [5] | GI50 [6] | GI50 [7] | GI50 [8] | GI50 [9] | GI50 [10] | GI50 [11] | GI50 [12] | GI50 [13] | GI50 [14] | GI50 [15] | GI50 [16] | GI50 [17] | GI50 [18] | GI50 [19] | GI50 [20]
1 | O=C1C(Cl)=C(Nc2ccc(S(=O)(=O)Nc3ccccn3)cc2)C(=O)c2ccccc21 | 8.22 µM (inactive) | 18.7 µM (inactive) | 16.8 µM (inactive) | 3.68 µM (inactive) | 9.4 µM (inactive) | 12.2 µM (inactive) | 5.93 µM (inactive) | 1.78 µM (inactive) | 5.15 µM (inactive) | 6.89 µM (inactive) | 6.46 µM (inactive) | 3.61 µM (inactive) | 4.53 µM (inactive) | 9.93 µM (inactive) | 16.3 µM (inactive) | 4.4 µM (inactive) | 11.3 µM (inactive) | 16.4 µM (inactive) | 5.6 µM (inactive) | 9.84 µM (inactive)
2 | NC(=O)c1cnc2sc3ccccc3n2c1=O | > 100 µM (inactive) | 67.9 µM (inactive) | > 100 µM (inactive) | > 100 µM (inactive) | 21.9 µM (inactive) | > 100 µM (inactive) | > 100 µM (inactive) | > 100 µM (inactive) | > 100 µM (inactive) | > 100 µM (inactive) | > 100 µM (inactive) | > 100 µM (inactive) | > 100 µM (inactive) | > 100 µM (inactive) | > 100 µM (inactive) | > 100 µM (inactive) | > 100 µM (inactive) | > 100 µM (inactive) | > 100 µM (inactive) | 77.1 µM (inactive)
3 | O=C(O)/C=N/NC(=S)NC1CCCCC1 | > 100 µM (inactive) | > 100 µM (inactive) | > 100 µM (inactive) | > 100 µM (inactive) | > 100 µM (inactive) | > 100 µM (inactive) | > 100 µM (inactive) | > 100 µM (inactive) | > 100 µM (inactive) | > 100 µM (inactive) | > 100 µM (inactive) | > 100 µM (inactive) | > 100 µM (inactive) | > 100 µM (inactive) | > 100 µM (inactive) | > 100 µM (inactive) | > 100 µM (inactive) | > 100 µM (inactive) | > 100 µM (inactive) | > 100 µM (inactive)
4 | Cc1cnc2c(c1)C(=O)N(c1ccc(Oc3ccccc3)cc1)S2(=O)=O | > 100 µM (inactive) | > 100 µM (inactive) | > 100 µM (inactive) | > 100 µM (inactive) | > 100 µM (inactive) | > 100 µM (inactive) | 57.8 µM (inactive) | > 100 µM (inactive) | > 100 µM (inactive) | > 100 µM (inactive) | > 100 µM (inactive) | > 100 µM (inactive) | > 100 µM (inactive) | > 100 µM (inactive) | > 100 µM (inactive) | > 100 µM (inactive) | > 100 µM (inactive) | > 100 µM (inactive) | > 100 µM (inactive) | > 100 µM (inactive)
5 | COc1c(Cl)c(=O)oc2ccc(Cl)cc12 | > 100 µM (inactive) | > 100 µM (inactive) | > 100 µM (inactive) | > 100 µM (inactive) | 81.7 µM (inactive) | > 100 µM (inactive) | > 100 µM (inactive) | > 100 µM (inactive) | > 100 µM (inactive) | > 100 µM (inactive) | > 100 µM (inactive) | > 100 µM (inactive) | > 100 µM (inactive) | > 100 µM (inactive) | > 100 µM (inactive) | > 100 µM (inactive) | > 100 µM (inactive) | > 100 µM (inactive) | > 100 µM (inactive) | > 100 µM (inactive)
6 | NC1C/C(=N\O)c2c(I)sc(I)c21 (stereo not given) | 16 µM (inactive) | 16 µM (inactive) | 15.2 µM (inactive) | 2.44 µM (inactive) | 19 µM (inactive) | 20.1 µM (inactive) | 15.7 µM (inactive) | 1.77 µM (inactive) | 7.31 µM (inactive) | 21.3 µM (inactive) | 19.8 µM (inactive) | 3.05 µM (inactive) | 21.3 µM (inactive) | 18.4 µM (inactive) | 17.5 µM (inactive) | 14.8 µM (inactive) | 20.7 µM (inactive) | 17.2 µM (inactive) | 17.3 µM (inactive) | 13 µM (inactive)
7 | C=C(C(=O)OC)N1C(=O)CC(C)C1=O (stereo not given) | 10.7 µM (inactive) | 20.9 µM (inactive) | 1.13 µM (inactive) | 1.7 µM (inactive) | 14.7 µM (inactive) | 16.1 µM (inactive) | 15.9 µM (inactive) | 7.14 µM (inactive) | 10.3 µM (inactive) | 17.6 µM (inactive) | 14.2 µM (inactive) | 3.33 µM (inactive) | 18.1 µM (inactive) | 15.6 µM (inactive) | 9.55 µM (inactive) | 16.9 µM (inactive) | 16.1 µM (inactive) | 21.4 µM (inactive) | 15.2 µM (inactive) | 13.1 µM (inactive)
8 | CC(=O)NCCc1c(-c2[nH]c3ccccc3c2CCNC(C)=O)[nH]c2ccccc12 | 35.7 µM (inactive) | > 100 µM (inactive) | > 100 µM (inactive) | > 100 µM (inactive) | > 100 µM (inactive) | > 100 µM (inactive) | 24.6 µM (inactive) | > 100 µM (inactive) | > 100 µM (inactive) | 82.4 µM (inactive) | > 100 µM (inactive) | > 100 µM (inactive) | 42.2 µM (inactive) | 87.1 µM (inactive) | > 100 µM (inactive) | > 100 µM (inactive) | > 100 µM (inactive) | > 100 µM (inactive) | > 100 µM (inactive) | > 100 µM (inactive)
9 | CC1=C(C(=O)Nc2ccccc2)C(c2ccc(C)o2)C(C#N)=C(SCc2ccccc2)N1 (stereo not given) | > 100 µM (inactive) | > 90.4 µM (inactive) | > 100 µM (inactive) | 13.2 µM (inactive) | > 84.3 µM (inactive) | > 100 µM (inactive) | 52.6 µM (inactive) | > 100 µM (inactive) | 19.8 µM (inactive) | > 100 µM (inactive) | 5.38 µM (inactive) | 7.55 µM (inactive) | > 100 µM (inactive) | 18.7 µM (inactive) | > 100 µM (inactive) | 34.5 µM (inactive) | > 100 µM (inactive) | > 100 µM (inactive) | 18.9 µM (inactive) | 99.3 µM (inactive)
10 | OCCNc1nc2c(N3CCCC3)nc(N3CCNCC3)nc2nc1NCc1ccccc1 | 14.8 µM (inactive) | 17 µM (inactive) | 16.2 µM (inactive) | 10.8 µM (inactive) | 13.6 µM (inactive) | 15.2 µM (inactive) | 11.9 µM (inactive) | 14.7 µM (inactive) | 14.3 µM (inactive) | 15.7 µM (inactive) | 11.9 µM (inactive) | 16 µM (inactive) | 15.5 µM (inactive) | 38.5 µM (inactive) | 17.5 µM (inactive) | 12.6 µM (inactive) | 16.7 µM (inactive) | 15.8 µM (inactive) | 17.3 µM (inactive) | 15.3 µM (inactive)
11 | CCOC(=O)c1ccc(Nc2cnc3ccc(C(F)(F)F)cc3n2)cc1 | 13.9 µM (inactive) | 14.5 µM (inactive) | 16.9 µM (inactive) | 12.1 µM (inactive) | 24.6 µM (inactive) | 12.9 µM (inactive) | 15 µM (inactive) | 15.8 µM (inactive) | 19.1 µM (inactive) | 23.4 µM (inactive) | 17.9 µM (inactive) | 3.63 µM (inactive) | 14.2 µM (inactive) | 12.8 µM (inactive) | 15.8 µM (inactive) | 15.5 µM (inactive) | 13.9 µM (inactive) | 28.1 µM (inactive) | 13.6 µM (inactive) | 20.1 µM (inactive)
12 | CCCCCCCCCCCCCCCCCCNc1ccn(C2OC(COP(=O)(O)OCC3OC(n4ccc(NC(=O)CCCCCCCCCCCCCCCCC)nc4=O)C(OC(C)=O)C3OC(C)=O)C(OC(C)=O)C2OC(C)=O)c(=O)n1 (stereo not given) | > 100 µM (inactive) | > 100 µM (inactive) | > 100 µM (inactive) | > 100 µM (inactive) | > 100 µM (inactive) | > 100 µM (inactive) | > 100 µM (inactive) | > 100 µM (inactive) | > 100 µM (inactive) | > 100 µM (inactive) | > 100 µM (inactive) | > 100 µM (inactive) | > 100 µM (inactive) | > 100 µM (inactive) | > 100 µM (inactive) | > 100 µM (inactive) | > 100 µM (inactive) | > 100 µM (inactive) | > 100 µM (inactive) | > 100 µM (inactive)
13 | COc1cccc(C2C3=C(COC3=O)Oc3cc4c(cc32)OCO4)c1 (stereo not given) | 0.0344 µM (active) | 0.0412 µM (active) | 0.0229 µM (active) | 0.0192 µM (active) | 0.177 µM (active) | 0.0723 µM (active) | 0.0738 µM (active) | < 0.0155 µM (active) | 0.0246 µM (active) | 0.0718 µM (active) | < 0.01 µM (active) | 0.0256 µM (active) | 0.0267 µM (active) | 0.0168 µM (active) | 0.0327 µM (active) | 0.0175 µM (active) | 0.078 µM (active) | 0.187 µM (active) | 0.0134 µM (active) | 0.0927 µM (active)
14 | C(=C\c1ccccc1)/COc1ccccc1C(N1CCOCC1)n1nc2ccccc2n1 (stereo not given) | 3.29 µM (inactive) | 41 µM (inactive) | 15.2 µM (inactive) | 1.88 µM (inactive) | 21.2 µM (inactive) | 17.5 µM (inactive) | 7.98 µM (inactive) | 2.9 µM (inactive) | 1.4 µM (inactive) | 4.73 µM (inactive) | 0.621 µM (active) | 2.3 µM (inactive) | 15.4 µM (inactive) | 3.69 µM (inactive) | 10.7 µM (inactive) | 3.33 µM (inactive) | 5.6 µM (inactive) | 19.2 µM (inactive) | 3 µM (inactive) | 9.86 µM (inactive)
